Assay results taken from patent US8039639B2, “Kinase inhibitors and methods of use thereof” (Array BioPharma Inc., priority 2006, dated 2011).
“Also recorded” adds a separate entry of the source.

Tests used:
Hck = Hck (Homo sapiens, UniProt P08631); assay: protein kinase IC50 determination (ATP at Km); assay type: biochemical; details: ATP concentration at Km
VEGFR = VEGFR (Homo sapiens, UniProt P35968); assay: protein kinase IC50 determination (ATP at Km); assay type: biochemical; details: ATP concentration at Km
VEGFR, sequence (P35968 20-1356): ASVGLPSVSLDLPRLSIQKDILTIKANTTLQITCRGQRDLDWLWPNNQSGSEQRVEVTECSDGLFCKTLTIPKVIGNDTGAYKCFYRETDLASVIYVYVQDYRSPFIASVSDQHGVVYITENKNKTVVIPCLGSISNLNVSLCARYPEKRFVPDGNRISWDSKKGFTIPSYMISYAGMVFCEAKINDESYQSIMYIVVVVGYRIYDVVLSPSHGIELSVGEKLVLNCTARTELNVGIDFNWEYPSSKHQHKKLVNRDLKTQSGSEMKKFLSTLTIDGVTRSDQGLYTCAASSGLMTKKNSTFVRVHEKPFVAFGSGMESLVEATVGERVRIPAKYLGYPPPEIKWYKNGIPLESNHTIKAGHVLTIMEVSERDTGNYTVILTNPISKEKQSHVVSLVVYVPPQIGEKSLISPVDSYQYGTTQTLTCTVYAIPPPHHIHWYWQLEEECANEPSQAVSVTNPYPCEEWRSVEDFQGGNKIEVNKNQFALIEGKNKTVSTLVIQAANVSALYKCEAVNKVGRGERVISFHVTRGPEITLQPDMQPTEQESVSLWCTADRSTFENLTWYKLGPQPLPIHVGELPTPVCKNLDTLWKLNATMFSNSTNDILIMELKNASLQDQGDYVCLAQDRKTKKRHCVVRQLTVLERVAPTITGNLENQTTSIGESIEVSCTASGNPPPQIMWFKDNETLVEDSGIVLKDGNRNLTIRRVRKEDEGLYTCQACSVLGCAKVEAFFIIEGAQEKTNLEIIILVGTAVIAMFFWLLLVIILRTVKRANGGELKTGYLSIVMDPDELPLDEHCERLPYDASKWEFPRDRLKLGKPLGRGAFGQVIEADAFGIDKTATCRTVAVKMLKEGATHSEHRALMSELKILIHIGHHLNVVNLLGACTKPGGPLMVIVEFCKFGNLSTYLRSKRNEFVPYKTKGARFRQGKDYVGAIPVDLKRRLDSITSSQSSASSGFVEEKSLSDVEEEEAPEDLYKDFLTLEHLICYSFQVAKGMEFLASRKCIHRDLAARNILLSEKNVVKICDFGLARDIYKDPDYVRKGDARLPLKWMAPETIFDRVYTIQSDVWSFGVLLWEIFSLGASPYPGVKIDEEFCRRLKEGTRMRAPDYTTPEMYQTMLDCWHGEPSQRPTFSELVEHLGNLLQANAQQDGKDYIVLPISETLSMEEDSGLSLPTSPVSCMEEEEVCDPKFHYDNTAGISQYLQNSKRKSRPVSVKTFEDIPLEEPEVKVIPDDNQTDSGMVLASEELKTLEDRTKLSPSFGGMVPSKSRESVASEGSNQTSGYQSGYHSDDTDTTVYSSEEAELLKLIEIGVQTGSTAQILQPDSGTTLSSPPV

Erk and AKT = assay: phospho-Erk and phospho-AKT in Ang-1 stimulated HUVECs; assay type: cell-based; details: Homo sapiens, HUVEC, 10 min, 200 ng/mL Ang-1 for 10 minutes, read-out: IC50, downstream effectors Erk and AKT
Text: Tie2 was then immunopurified (IP) and immunoblotted with anti-phosphotyrosine (pTyr) and anti-Tie2 antibodies to assess the degree of Tie2 autophosphorylation. Lysates were immunoblotted with anti-phospho-Erk and anti-phospho-AKT (Ser473) antibodies, respectively. Signals were quantified and normalized to GAPDH as a loading control. The results were shown in an immunoblot and a graph.

K562 = K562 cell viability (CellTiter Blue); assay type: cell-based; details: Homo sapiens; K562, 72 hours
Text: Cell viability was subsequently measured using CellTiter Blue (Promega) to determine IC50 values for each compound.

Solubility determination = assay type: physicochemical
CYP2C9 = biological target: T1, CYP2C9 (Homo sapiens, UniProt P11712); assay: CYP inhibition assay (LC/MS, pooled human liver microsomes); assay type: in vitro ADME; details: n=1
T1 construct: using pooled human liver microsomes (n=1); from tissue; host or cells: pooled human liver microsomes
T1 sequence (P11712 whole entry): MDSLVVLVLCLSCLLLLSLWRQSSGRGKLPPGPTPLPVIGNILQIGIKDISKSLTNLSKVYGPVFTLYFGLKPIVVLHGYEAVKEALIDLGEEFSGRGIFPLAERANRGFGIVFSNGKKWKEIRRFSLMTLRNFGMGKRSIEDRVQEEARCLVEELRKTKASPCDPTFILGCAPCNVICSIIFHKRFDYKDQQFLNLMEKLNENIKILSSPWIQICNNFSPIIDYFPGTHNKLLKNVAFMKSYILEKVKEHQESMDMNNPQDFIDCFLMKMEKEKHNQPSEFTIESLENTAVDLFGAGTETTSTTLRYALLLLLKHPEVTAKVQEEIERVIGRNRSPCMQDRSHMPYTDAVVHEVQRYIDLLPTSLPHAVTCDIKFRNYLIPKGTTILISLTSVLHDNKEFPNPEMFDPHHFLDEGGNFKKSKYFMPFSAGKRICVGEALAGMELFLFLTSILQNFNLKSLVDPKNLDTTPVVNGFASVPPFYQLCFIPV

CYP1A2 = CYP1A2 (Homo sapiens, UniProt P05177); assay: CYP inhibition assay (fluorescent probe, recombinant protein); assay type: in vitro ADME; details: n=1
CYP1A2, sequence (P05177 whole entry, species assumed): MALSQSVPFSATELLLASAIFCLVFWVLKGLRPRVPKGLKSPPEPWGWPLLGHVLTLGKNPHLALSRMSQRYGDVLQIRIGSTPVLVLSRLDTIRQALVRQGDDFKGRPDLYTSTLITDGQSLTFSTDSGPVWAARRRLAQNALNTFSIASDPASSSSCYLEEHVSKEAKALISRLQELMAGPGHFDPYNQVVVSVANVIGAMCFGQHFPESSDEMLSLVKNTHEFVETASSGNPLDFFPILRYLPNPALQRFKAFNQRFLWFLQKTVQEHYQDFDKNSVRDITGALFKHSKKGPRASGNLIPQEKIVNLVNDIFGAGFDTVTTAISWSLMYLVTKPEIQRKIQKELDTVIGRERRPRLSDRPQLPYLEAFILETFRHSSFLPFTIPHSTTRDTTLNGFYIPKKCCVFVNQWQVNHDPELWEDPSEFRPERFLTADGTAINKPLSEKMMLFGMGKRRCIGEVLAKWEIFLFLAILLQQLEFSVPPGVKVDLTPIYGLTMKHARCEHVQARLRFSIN

hERG = hERG (Homo sapiens, UniProt Q12809); assay: hERG patch clamp; assay type: cell-based; details: at 10 μM
hERG, sequence (Q12809 whole entry): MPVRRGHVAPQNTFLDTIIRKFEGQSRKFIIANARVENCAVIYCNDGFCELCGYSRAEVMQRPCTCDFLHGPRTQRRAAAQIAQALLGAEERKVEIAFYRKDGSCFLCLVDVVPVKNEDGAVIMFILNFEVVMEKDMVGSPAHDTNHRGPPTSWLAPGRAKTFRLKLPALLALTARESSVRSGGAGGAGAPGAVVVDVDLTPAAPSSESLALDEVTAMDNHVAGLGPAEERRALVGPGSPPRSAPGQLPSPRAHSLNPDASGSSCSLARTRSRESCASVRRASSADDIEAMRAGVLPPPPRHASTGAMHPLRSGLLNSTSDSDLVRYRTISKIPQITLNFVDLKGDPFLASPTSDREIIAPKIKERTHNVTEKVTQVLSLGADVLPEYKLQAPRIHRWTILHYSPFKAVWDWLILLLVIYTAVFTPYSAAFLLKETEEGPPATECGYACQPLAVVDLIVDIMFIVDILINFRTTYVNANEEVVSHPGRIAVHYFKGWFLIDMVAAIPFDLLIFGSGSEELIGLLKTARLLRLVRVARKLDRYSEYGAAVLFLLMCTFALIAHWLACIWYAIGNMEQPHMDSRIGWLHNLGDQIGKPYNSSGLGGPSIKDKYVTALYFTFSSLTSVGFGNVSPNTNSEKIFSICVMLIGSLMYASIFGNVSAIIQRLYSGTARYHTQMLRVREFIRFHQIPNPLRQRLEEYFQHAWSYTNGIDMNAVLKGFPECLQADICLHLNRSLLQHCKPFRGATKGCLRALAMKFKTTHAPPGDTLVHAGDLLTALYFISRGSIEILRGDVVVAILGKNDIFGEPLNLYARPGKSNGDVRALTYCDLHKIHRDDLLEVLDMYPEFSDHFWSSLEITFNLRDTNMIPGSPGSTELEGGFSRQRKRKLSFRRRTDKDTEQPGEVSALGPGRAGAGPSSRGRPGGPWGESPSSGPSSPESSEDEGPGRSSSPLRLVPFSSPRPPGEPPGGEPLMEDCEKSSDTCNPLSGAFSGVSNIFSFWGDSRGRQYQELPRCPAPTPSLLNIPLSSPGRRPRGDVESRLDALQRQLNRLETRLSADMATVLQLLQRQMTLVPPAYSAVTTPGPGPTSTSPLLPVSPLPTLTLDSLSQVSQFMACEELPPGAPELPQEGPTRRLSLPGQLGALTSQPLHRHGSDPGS
Procedure: hERG assay was performed using a standard patch clamp protocol. AMES assay (bacterial reverse mutation assay) was performed according to protocol. […] In vitro and in vivo micronucleus assays were performed according to protocol.

[1] = 14-day tolerability study in mice; assay type: in vivo; details: 14 days, dosed as Compound 74
Procedure: Weight loss was assessed throughout study. Blood was removed on the final day for clinical chemistries (albumin, alkaline phosphatase, ALT, Amylase, BUN, calcium, cholesterol, creatinine, glucose, phosphate, total bilirubin, TP, Globulin).

[2] = Pharmacokinetics in mouse; assay type: in vivo, female Balb/c mice
Procedure: (§1) Non-compartmental (model independent) methods were used to analyze the plasma concentration time-curves derived from all species as described below. Clearance (Cl), calculated percent extraction ratios (ER %), volume of distribution (Vz), time to […] (t1/2) and exposure (AUC, area under the curve) values are provided below for mouse, rat, and monkey, respectively.
1. […] Blood samples were obtained at 15 and 30 minutes, and 1, 2, 4, 8 and 24 hours after PO dosing, and at 15 and 30 minutes, and 1, 2, 4, and 8 hours for IV administration.

[3] = Pharmacokinetics in monkey; assay type: in vivo, male Cynomologus monkeys
Text: as §1
3. […] Blood was sampled at the same time points as listed for the Mouse PK study.

[4] = tested on: bFGF-induced angiogenesis; assay: bFGF matrigel plug angiogenesis in vivo; parameters: species or system Female CD-1 mice; details: PO, BID×7, dosed as prodrug Compound 74
Procedure: Female CD-1 mice (19-22 g), n=4 per treatment group, were implanted subcutaneously with 500 μL growth factor reduced matrigel containing 1500 ng/mL bFGF or 0 ng/mL bFGF as a negative control. Test compounds were administered by oral gavage at the indicated doses and schedules. […] Sutent is an inhibitor of KDRand served as a positive drug control in this study. Animals were euthanized on day 7. Matrigel was harvested, weighed and homogenized in phosphate buffered saline, pH 7.4. Samples were centrifuged and the resulting lysate analyzed for hemoglobin concentration by colorimetric reaction.

K562 cells = assay: K562 subcutaneous tumor model (BCR-Abl-driven tumors); assay type: in vivo, Female Scid-beige mice; details: for % Regression / Complete responses: K562 tumors, PO ×7, dosed as Compound 74; for Complete responses: n=8
Procedure: Test compounds were administered by oral gavage at the indicated doses and schedules when tumors reached 200±50 mm^3 in size. […] Tumor size and body weight were monitored throughout the study.

VEGFR2 = biological target: T2, VEGFR2 (Homo sapiens, UniProt P35968); assay: VEGFR2 autophosphorylation (Tyr1175) in VEGF-stimulated HUVECs; assay type: cell-based; details: 20 ng/mL VEGF for 5 minutes, read-out: IC50, VEGFR2 autophosphorylation at Tyrosine residue 1175
T2 construct: endogenous in cells; host or cells: HUVEC
T2 sequence (P35968 20-1356): as the sequence (P35968 20-1356) above
Procedure: Lysates of the various treatments were prepared and immunoblotted with antibodies specific for VEGFR2 phosphorylated at Tyr1175. […] Phospho-VEGFR2 signal was normalized to GAPDH as a loading control.

[5] = CD-1 mice, 10, 30 and 100 mg/kg BID, all dose groups
[6] = female, Balb/c, plasma, IV: 1 mg/kg

Hck, sequence (P08631 whole entry, species assumed): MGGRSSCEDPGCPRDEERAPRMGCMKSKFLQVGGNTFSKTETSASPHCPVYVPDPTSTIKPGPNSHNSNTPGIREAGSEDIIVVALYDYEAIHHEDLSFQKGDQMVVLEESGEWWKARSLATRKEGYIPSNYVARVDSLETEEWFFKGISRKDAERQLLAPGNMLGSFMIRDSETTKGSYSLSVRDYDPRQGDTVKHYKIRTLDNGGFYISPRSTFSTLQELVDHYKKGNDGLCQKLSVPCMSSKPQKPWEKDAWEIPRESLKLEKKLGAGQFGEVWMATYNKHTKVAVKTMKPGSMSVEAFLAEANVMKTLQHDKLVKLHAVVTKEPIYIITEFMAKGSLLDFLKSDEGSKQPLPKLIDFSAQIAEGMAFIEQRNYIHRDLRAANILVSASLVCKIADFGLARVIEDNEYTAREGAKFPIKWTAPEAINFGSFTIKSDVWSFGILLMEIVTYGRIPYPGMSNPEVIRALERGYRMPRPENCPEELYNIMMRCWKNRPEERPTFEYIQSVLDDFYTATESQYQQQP

In the case of `Cc1ccc(-n2nc(C(C)(C)C)cc2NC(=O)NCc2cc(F)ccc2Oc2ccc3c(cnn3CCO)c2)cc1` [Compound 72, 1-(3-tert-butyl-1-p-tolyl-1H-pyrazol-5-yl)-3-(5-fluoro-2-(1-(2-hydroxyethyl)-1H-indazol-5-yloxy)benzyl)urea], the IC50 (Hck) is reported as 26 nM, the IC50 (VEGFR) is reported as 74 nM and the IC50 (Erk and AKT) is reported as < 11 nM. The IC50 (K562) was 62 nM, the solubility (Solubility determination; aqueous buffer, pH 3.0) was < 5 µg/mL and the solubility (Solubility determination; pH 7.4, aqueous buffer) was < 5 µg/mL. For the same compound, the IC50 (CYP2C9) was 5000 nM, the IC50 (CYP1A2) was 25000 nM and the “hERG Patch Clamp Inhibition” value (hERG) was 64% Inhibition at 10 μM. For the same compound, the Clinical chemistries [1, 5] was “Within normal range (all dose groups)”, the Weight loss [1, 5] was <5% (all dose groups) and the “dose-limiting toxicities (DLTs)” value ([1]; CD-1 mice, up to 100 mg/kg BID) was “no dose-limiting toxicities (DLTs) were seen; also recorded: no observed DLTs”. For the same compound, the AUC ([2]; IV: 1 mg/kg) was “AUC = 6.6 μg-hr/kg”, the ER ([2]; IV: 1 mg/kg) was “ER = 2.8%” and the AUC ([2]; Oral: 10 mg/kg) was “AUC = 10.5 μg-hr/kg”. For the same compound, the F ([2]; Oral: 10 mg/kg) was “F = 16%”, the clearance [2, 6] was 2.6 mL/min/kg and the half-life [2, 6] was 3.9 h. For the same compound, the Vd ([2]; female, Balb/c, plasma, IV: 1 mg/kg, read-out: Vz) was 0.085 L/kg, the Cmax ([2]; female, Balb/c, plasma, Oral: 10 mg/kg) was 1800 ng/mL and the AUC ([3]; IV: 1 mg/kg) was “AUC = 4.1 μg-hr/kg”. The ER ([3]; IV: 1 mg/kg) was “ER = 20%”, the AUC ([3]; Oral: 10 mg/kg) was “AUC = 7.6 μg-hr/kg” and the F ([3]; Oral: 10 mg/kg) was “F = 38%”. It also gave a clearance ([3]; male, plasma, IV: 1 mg/kg) of 8.8 mL/min/kg, a half-life ([3]; male, plasma, IV: 1 mg/kg) of 4.6 h and a Vd ([3]; male, plasma, IV: 1 mg/kg, read-out: Vz) of 3.2 L/kg. For the same compound, the Cmax ([3]; male, plasma, Oral: 10 mg/kg) was 260 ng/mL, the “inhibition of bFGF-induced angiogenesis (matrigel hemoglobin)” value ([4]; mice, 100 mg/kg active drug, p<0.05) was 72% and the “bFGF-induced angiogenesis, dose response” value ([4]; mice, 10, 30 or 100 mg/kg active drug) was “inhibited bFGF-induced angiogenesis in a dose-dependent manner”. The body weight loss (K562 cells; K562 tumor-bearing Scid-beige mice, throughout the course of treatment) was “less than 10%”, the “% Regression” value (K562 cells; 30 mg/kg BID) was “Stasis” and the Complete responses (K562 cells; 30 mg/kg BID) was 0/8. For the same compound, the “% Regression” value (K562 cells; 100 mg/kg BID) was 93%, the Complete responses (K562 cells; 100 mg/kg BID) was 5/8 and the “% Regression” value (K562 cells; 100 mg/kg QD) was “Stasis”. For the same compound, the Complete responses (K562 cells; 100 mg/kg QD) was 0/8 and the IC50 (VEGFR2) was 48 nM.
